Experimental findings from ChEMBL document CHEMBL1126223, “Adenosine deaminase inhibitors. Synthesis and biological evaluation of C1' and nor-C1' derivatives of (+)-erythro-9-(2(S)-hydroxy-3(R)-nonyl)adenine” (J Med Chem, 1992) are described below.

As a reminder, the Ki is a dissociation constant, usually derived from enzyme kinetics or from competition with a known ligand. A low value points to higher affinity.

Structures are written as SMILES.

Assay [1] addresses T1, Adenosine deaminase (Bos taurus, UniProt P56658).
T1 sequence (P56658 whole entry): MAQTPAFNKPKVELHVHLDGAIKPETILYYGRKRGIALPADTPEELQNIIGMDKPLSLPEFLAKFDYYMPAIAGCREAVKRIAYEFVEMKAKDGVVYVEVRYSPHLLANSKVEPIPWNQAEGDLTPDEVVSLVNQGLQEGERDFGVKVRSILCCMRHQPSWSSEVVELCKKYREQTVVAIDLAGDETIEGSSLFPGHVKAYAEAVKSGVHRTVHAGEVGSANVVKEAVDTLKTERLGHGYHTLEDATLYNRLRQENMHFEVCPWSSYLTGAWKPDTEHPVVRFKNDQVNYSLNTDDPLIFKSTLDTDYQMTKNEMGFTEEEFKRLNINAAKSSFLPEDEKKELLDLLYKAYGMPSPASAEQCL
Put plainly: Binding affinity (Ki) at calf intestinal Adenosine deaminase.

Assay [2] addresses T1, Adenosine deaminase. Put plainly: Binding affinity (Ki) at calf intestinal adenosine deaminase.

`CCCCCC[C@H]([C@@H](O)CO)n1cnc2c(N)ncnc21` showed a Ki at Adenosine deaminase [1] of 56 nM.
`CCCCCC[C@H]([C@@H]1CO1)n1cnc2c(N)ncnc21` gave an inhibition constant Ki at Adenosine deaminase [1] of 890 nM.
For the compound `CCCCCC[C@H](CCl)n1cnc2c(N)ncnc21`, the Ki on Adenosine deaminase [2] was found to be 320 nM.
Regarding `CCCCCC[C@H](CO)n1cnc2c(N)ncnc21`, the affinity on Adenosine deaminase [1] corresponds to a Ki of 47 nM.
Still for that read-out and setting: next, `CCCCCC[C@H](CF)n1cnc2c(N)ncnc21`: 1600 nM.
In turn, `CCCCCC[C@H](CBr)n1cnc2c(N)ncnc21` returned a Ki on Adenosine deaminase [2] of 600 nM.
The compound `CCCCCC[C@@H]1[C@@H](O)C[n+]2cnc(N)c3ncn1c32` showed a Ki on Adenosine deaminase [2] of 1000 nM.
Still for that read-out and setting: next, `CCCCCC[C@H](CN=[N+]=[N-])n1cnc2c(N)ncnc21`: 1300 nM.
`CCCCCC[C@H]([C@H](C)O)n1cnc2c(N)ncnc21` [(+)-EHNA] returned a Ki at Adenosine deaminase [1] of 2 nM.
Take `CCCCCC[C@@H]([C@@H](C)O)n1cnc2c(N)ncnc21` [EHNA]: at Adenosine deaminase [2], the affinity corresponds to a Ki of 4 nM.
